Where two headings read alike, the source gives them in different places.
Molecular target: T1, Full-length glucokinase (beta cell isoform) (Homo sapiens, UniProt P35557)
T1 construct: Full-length glucokinase (beta cell isoform) was His-tagged at N-terminus; His tag (N); made in house
T1 sequence (P35557 1-465): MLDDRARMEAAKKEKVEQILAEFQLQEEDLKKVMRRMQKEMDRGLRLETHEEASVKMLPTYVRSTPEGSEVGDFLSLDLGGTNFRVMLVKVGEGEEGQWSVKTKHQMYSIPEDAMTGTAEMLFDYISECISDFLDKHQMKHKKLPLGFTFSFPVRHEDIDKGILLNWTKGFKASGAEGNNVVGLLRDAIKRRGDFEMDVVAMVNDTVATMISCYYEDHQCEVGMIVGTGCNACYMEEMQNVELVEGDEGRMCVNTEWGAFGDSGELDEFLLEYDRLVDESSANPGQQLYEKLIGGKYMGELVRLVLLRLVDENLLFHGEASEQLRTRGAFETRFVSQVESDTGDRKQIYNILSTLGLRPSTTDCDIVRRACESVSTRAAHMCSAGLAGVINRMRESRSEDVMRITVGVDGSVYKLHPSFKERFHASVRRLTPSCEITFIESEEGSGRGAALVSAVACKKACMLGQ
Assay: Glucokinase biochemical assay (PK/LDH-coupled, NADH depletion at 340 nm): % activation, EC50, % max activation
Settings: 5 mM glucose; for activation at 10 µM: read-out: % Activation at 10 uM; for EC50: read-out: EC50; for Emax: fitted maximum activation, read-out: % Max Activation
Protocol: Full-length glucokinase (beta cell isoform) was His-tagged at N-terminus and purified by a Ni column followed by size exclusion chromatography. Glucose was obtained from Calbiochem, and other reagents were from Sigma.
All assays were performed in a Corning 96-well plate using Spectramax PLUS spectrophotometer (Molecular Devices) at room temperature. The final assay volume was 100 uL. The buffer conditions used in this assay were as follows: 50 mM HEPES, 5 mM glucose, 1 mM ATP, 2 mM MgCl2, 0.7mM NADH, 2 mM DTT, 1 Unit/mL PK/LDH, 0.2 mM phosphoenolpyruvate, 25 mM KCl. Tested compound in DMSO solution was added to the buffer and mixed well by a plate shaker for 1 minute. The final concentration of DMSO introduced into the assay was 1%.
Glucokinase was added to the buffer mixture to initiate the reaction in the presence and absence of compound. Reaction was monitored by absorbance at 340nm due to the depletion of NADH. The initial reaction velocity was measured by the slope of a linear time course of 200-900 sec.
The percentage of activation was calculated by the following equation: % Activation=(Va/Vo−1)×100;
wherein each of Va and Vo is defined as the initial reaction velocity in the presence and absence of the tested compound, respectively.
The GK activities were measured as a function of compound concentrations.

[1] = 10 uM compound, % Activation=(Va/Vo−1)×100

| SMILES | activation at 10 µM [1] | EC50 (GK activation) | Emax | EC50 (1 mM ATP, room temperature) | activation at 10 µM (compound at 10 uM, 1 mM ATP, room temperature) | Emax (1 mM ATP) |
| --- | --- | --- | --- | --- | --- | --- |
| COCC1Cc2c(Oc3ccc(C(=O)N4CCC4)c(F)c3)cc(C(=O)Nc3ccn(C)n3)cc2O1 (stereo not shown) [Example 204, 4-[4-(Azetidine-1-carbonyl)-3-fluoro-phenoxy]-2-methoxymethyl-2,3-dihydro-benzofuran-6-carboxylic acid (1-methyl-1H-pyrazol-3-yl)-amide] | 73.9% | 2000 nM | 94% |  |  |  |
| CCNC(=O)c1c(F)cc(Oc2cc(C(=O)Nc3ccn(C)n3)cc3c2CC(C)(C)O3)cc1F [Example 112, 4-(4-Ethylcarbamoyl-3,5-difluoro-phenoxy)-2,2-dimethyl-2,3-dihydro-benzofuran-6-carboxylic acid (1-methyl-1H-pyrazol-3-yl)-amide] | 130% | 44 nM | 153% |  |  |  |
| CNC(=O)c1ccc(Oc2cc(C(=O)Nc3cnn(C)n3)cc3c2CC(C)(C)O3)cn1 [Example 170, 5-[2,2-Dimethyl-6-(2-methyl-2H-[1,2,3]triazol-4-ylcarbamoyl)-2,3-dihydro-benzofuran-4-yloxy]-pyridine-2-carboxylic acid methylamide] | 264% | 300 nM | 255% |  |  |  |
| Cn1ccc(NC(=O)c2cc(Oc3ccc(C(=O)N4CCOCC4)c(F)c3)c3c(c2)OC(C)(C)C3)n1 [Example 51, 4-[3-Fluoro-4-(morpholine-4-carbonyl)-phenoxy]-2,2-dimethyl-2,3-dihydro-benzofuran-6-carboxylic acid(1-methyl-1H-pyrazol-3-yl)-amide] | 129% | 250 nM | 130% |  |  |  |
| Cn1ncc(NC(=O)c2cc(Oc3ccc(S(=O)(=O)C4CC4)c(F)c3)c3c(c2)OC(C)(C)C3)n1 [Example 140, 4-(4-Cyclopropanesulfonyl-3-fluoro-phenoxy)-2,2-dimethyl-2,3-dihydro-benzofuran-6-carboxylic acid (2-methyl-2H-[1,2,3]triazol-4-yl)-amide] | 196% | 170 nM | 236% |  |  |  |
| Cc1ccc(NC(=O)c2cc(Oc3ccc(S(C)(=O)=O)cc3)cc3c2CCO3)nc1 [Example 6, 6-(4-Methanesulfonyl-phenoxy)-2,3-dihydrobenzofuran-4-carboxylic acid(5-methyl-pyridin-2-yl)-amide] | 87.6% | 9600 nM | 123% |  |  |  |
| Cc1ccc(NC(=O)c2cc(Oc3ccc(C(=O)N(C)C)cc3)c3oc(C)nc3c2)nc1 [Example 370, 7-{4-[(Dimethylamino)carbonyl]phenoxy}-2-methyl-N-(5-methylpyridin-2-yl)-1,3-benzoxazole-5-carboxamide] | 14.9% | 170 nM | 3.5% |  |  |  |
| Cn1ccc(NC(=O)c2cc(Oc3cnc(C(=O)N4CC(F)C4)c(F)c3)c3c(c2)OC(C)(C)C3)n1 [Example 403, 4-(5-fluoro-6-(3-fluoroazetidine-1-carbonyl)pyridin-3-yloxy)-2,2-dimethyl-N-(1-methyl-1H-pyrazol-3-yl)-2,3-dihydrobenzofuran-6-carboxamide] |  |  |  | 121 nM | 196% | 191% |
| CN1CCN(C(=O)c2ccc(Oc3cc(C(=O)Nc4ccn(C)n4)cc4c3CC(C)(C)O4)cc2F)CC1 [Example 53, 4-[3-Fluoro-4-(4-methyl-piperazine-1-carbonyl)-phenoxy]-2,2-dimethyl-2,3-dihydro-benzofuran-6-carboxylic acid(1-methyl-1H-pyrazol-3-yl)-amide] | 125% | 650 nM | 135% |  |  |  |
| C[C@@H](CO)COc1cc(C(=O)Nc2ccn(C)n2)cc2c1CC(C)(C)O2 [Example 102, 4-((S)-3-Hydroxy-2-methyl-propoxy)-2,2-dimethyl-2,3-dihydro-benzofuran-6-carboxylic acid (1-methyl-1H-pyrazol-3-yl)-amide] | 92.6% | 8800 nM | 137% |  |  |  |
| Cn1ncc(NC(=O)c2cc(Oc3ccc(-c4ncon4)c(F)c3)c3c(c2)OC(C)(C)C3)n1 [Example 186, 4-(3-Fluoro-4-[1,2,4]oxadiazol-3-yl-phenoxy)-2,2-dimethyl-2,3-dihydro-benzofuran-6-carboxylic acid (2-methyl-2H-[1,2,3]triazol-4-yl)-amide] | 135% | 160 nM | 234% |  |  |  |

The remaining lines, values ahead:

| activation at 10 µM [1] | EC50 (GK activation) | Emax | EC50 (1 mM ATP, room temperature) | activation at 10 µM (compound at 10 uM, 1 mM ATP, room temperature) | Emax (1 mM ATP) | SMILES |
| --- | --- | --- | --- | --- | --- | --- |
| 212% | 270 nM | 218% |  |  |  | Cn1ccc(NC(=O)c2cc(Oc3ccc(S(C)(=O)=O)cc3Cl)c3c(c2)OC(C)(C)C3)n1 [Example 137, 4-(2-Chloro-4-methanesulfonyl-phenoxy)-2,2-dimethyl-2,3-dihydro-benzofuran-6-carboxylic acid (1-methyl-1H-pyrazol-3-yl)-amide] |
| 129% | 620 nM | 142% |  |  |  | Cc1cc2c(Oc3ccc(S(C)(=O)=O)cc3)cc(C(=O)Nc3ccn(C)n3)cc2s1 [Example 360, 4-(4-(Methylsulfonyl)phenoxy)-2-methyl-N-(1-methyl-1H-pyrazol-3-yl)benzo[b]thiophene-6-carboxamide] |
| 105% | 2000 nM | 133% |  |  |  | CN(C)Cc1ccc(Oc2cc(C(=O)Nc3ccn(C)n3)cc3c2CC(C)(C)O3)c(F)c1 [Example 39, 4-(4-Dimethylaminomethyl-2-fluoro-phenoxy)-2,2-dimethyl-2,3-dihydro-benzofuran-6-carboxylic acid(1-methyl-1H-pyrazol-3-yl)-amide] |
| 89.8% | > 10000 nM |  |  |  |  | COCC1(C)Cc2c(Oc3cc(F)ccc3S(C)(=O)=O)cc(C(=O)Nc3ccn(C)n3)cc2O1 (stereo not shown) [Example 238, 4-(5-Fluoro-2-methanesulfonyl-phenoxy)-2-methoxymethyl-2-methyl-2,3-dihydro-benzofuran-6-carboxylic acid (1-methyl-1H-pyrazol-3-yl)-amide] |
| 103% | 2930 nM | 242% |  |  |  | Cn1ccc(NC(=O)c2cc(Oc3ccc(S(C)(=O)=O)cc3)c3c(c2)OC(C(F)F)C3)n1 (stereo not shown) [Example 225, 2-Difluoromethyl-4-(4-methanesulfonyl-phenoxy)-2,3-dihydro-benzofuran-6-carboxylic acid (1-methyl-1H-pyrazol-3-yl)-amide] |
| 193% | 66 nM | 165% |  |  |  | CCS(=O)(=O)c1ccc(Oc2cc(C(=O)Nc3ccn(C)n3)cc3c2CC(C)(C)O3)cc1 [Example 127, 4-(4-Ethanesulfonyl-phenoxy)-2,2-dimethyl-2,3-dihydro-benzofuran-6-carboxylic acid (1-methyl-1H-pyrazol-3-yl)-amide] |
| 113% | 2900 nM | 147% |  |  |  | Cn1ccc(NC(=O)c2cc(Oc3ccc(S(C)(=O)=O)cc3)c3c(c2)OC(CO)C3)n1 (stereo not shown) [Example 200, 2-Hydroxymethyl-4-(4-methanesulfonyl-phenoxy)-2,3-dihydro-benzofuran-6-carboxylic acid (1-methyl-1H-pyrazol-3-yl)-amide] |
| 97.9% | 3900 nM | 127% |  |  |  | Cc1ccc(NC(=O)c2cc(Oc3ccc(S(C)(=O)=O)cc3)c3c(c2)OC(C)(C)C3)nn1 [Example 21, 4-(4-Methanesulfonyl-phenoxy)-2,2-dimethyl-2,3-dihydro-benzofuran-6-carboxylic acid (6-methyl-pyridazin-3-yl)-amide] |
| 63.6% | 1000 nM | 60% |  |  |  | COc1ccnc(NC(=O)c2cc(Oc3ccc(S(C)(=O)=O)cc3)c3cc(C)oc3c2)c1 [Example 259, N-(4-Methoxypyridin-2-yl)-2-methyl-4-(4-(methylsulfonyl)-phenoxy)-benzofuran-6-carboxamide] |
| 132% | > 10000 nM |  |  |  |  | Cc1cc2c(Oc3ccc(S(C)(=O)=O)cn3)cc(C(=O)Nc3ccn(C)n3)cc2o1 [Example 283, 2-Methyl-N-(1-methyl-1H-pyrazol-3-yl)-4-(5-(methylsulfonyl)-pyridin-2-yloxy)-benzofuran-6-carboxamide] |
| 58.8% | 7900 nM | 81% |  |  |  | Cc1cc2c(Oc3ccc(S(C)(=O)=O)cc3)cc(C(=O)Nc3ccc(C#N)cn3)cc2o1 [Example 261, N-(5-cyanopyridin-2-yl)-2-methyl-4-(4-(methylsulfonyl)-phenoxy)benzofuran-6-carboxamide] |
